Measured values as given in patent publication US11213527B2, “Inhibitory effect of low molecular weight compound on cancer and fibrosis” (NATIONAL UNIVERSITY CORPORATION TOTTORI UNIVERSITY, priority 2014, dated 2022).

Experiments:
liver fibrosis = assay: Liver disease model mice (carbon tetrachloride-induced liver fibrosis); format: in vivo, C57BL/6 male mice; conditions: glycyrrhizin 150 mg/kg, IC-2 10.6 or 21.2 mg/kg intraperitoneally 3 times a week for 4 weeks, vs vehicle
Procedure: First, 7-week-old C57BL/6 male mice (Japan SLC, Shizuoka, Japan) were subject to 1-week preparatory rearing. Among them, healthy mice were used. The mice were housed in an animal cage at a room temperature of 22±1° C. and a humidity of 50±5% throughout the preparatory rearing and experimental period and were given ad libitum access to food and water.
A microsyringe (ITO CORPORATION, Shizuoka, Japan) was used to intraperitoneally administer carbon tetrachloride (CCl4: Wako Pure Chemical Industries, Ltd., Osaka, Japan) at 0.2 ml/kg, 3 times a week, for 4, 6, or 8 weeks. Carbon tetrachloride was dissolved into cone oil (Wako Pure Chemical Industries, Ltd.) at a concentration of 10%. The resulting solution was used. After this carbon tetrachloride solution was administered for 4 weeks, the mice were divided into a vehicle administration group, a glycyrrhizin administration group, an ICG-001 administration group, and an IC-2 administration group. Then, a microsyringe was used to intraperitoneally administer, 3 times a week for 4 weeks, carbon tetrachloride and a drug solution prepared in accordance with the following process. Note that the carbon tetrachloride and the drug solution were alternately administered with one-day interval.
Glycyrrhizin (TOKYO CHEMICAL INDUSTRY CO., LTD., Tokyo, Japan) was dissolved in physiological saline. The solution was prepared at a concentration of 30 mg/ml while the pH was adjusted to 7.0 with 4 M NaOH liquid. IC-2 and ICG-001 (AdooQ BioScience, California, USA) were each dissolved in a WellSolve (Celeste Corporation, Tokyo, Japan) at a concentration of 40 mg/ml and 10 mg/ml, respectively. Next, the mixture was heated for 10 min in a hot water bath at 60° C. and was then completely dissolved. A 9-fold volume of physiological saline was added to the WellSolve solution in which the above drugs had each been dissolved. […] Note that an IC-2 dosage was determined on the basis of an effective concentration in vitro. […]

cancer stem cells = conditions: Fbxw7-deficient model mice; cited from earlier work

Row | SMILES | content of hydroxyproline (liver fibrosis) | killing of cancer stem cells (cancer stem cells)
1 | CC1(C)[C@@H](O[C@H]2O[C@H](C(=O)O)[C@@H](O)[C@H](O)[C@H]2O[C@@H]2O[C@H](C(=O)O)[C@@H](O)[C@H](O)[C@H]2O)CC[C@]2(C)[C@H]3C(=O)C=C4[C@@H]5C[C@@](C)(C(=O)O)CC[C@]5(C)CC[C@@]4(C)[C@]3(C)CC[C@@H]12 [glycyrrhizin, Glycyrrhizin, reference compound] | reduced content of hydroxyproline | 
2 | Cc1ccc(NC(=O)c2ccc(CN3CCN(C)CC3)cc2)cc1Nc1nccc(-c2cccnc2)n1 [imatinib] |  | cancer stem cells were killed
